Assay results published in US20250313563A1, “GLYCOGEN SYNTHASE KINASE 3 INHIBITORS AND USES THEREOF” (The Broad Institute, Inc., priority 2022, published 2025).
pIC50: −log10 of the molar value. Where two headings read alike, the source gives them in different places.

Tests used:
[1] = target: GSK3b (GST-full length GSK3b) (Homo sapiens (Human), UniProt P49841); test: GSK3b TR-FRET kinase assay; type: biochemical
In short: (§1)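 In this time-resolved FRET format, kinase reactions contained 200 nM biotinylated, S645-phosphorylated glycogen synthase 631-650 peptide and either isoform-specific ATP (2 μM GSK3b, 4 μM GSK3α) or 1 mM ATP. They were quenched with EDTA after 100 min at ambient temperature. Inhibition curves gave IC50 values.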

[2] = target: GSK3α (GST-full length GSK3α) (Homo sapiens (Human), UniProt P49840); test: GSK3α TR-FRET kinase assay; type: biochemical
Chain of GSK3α (GST-full length GSK3α) (P49840 whole entry): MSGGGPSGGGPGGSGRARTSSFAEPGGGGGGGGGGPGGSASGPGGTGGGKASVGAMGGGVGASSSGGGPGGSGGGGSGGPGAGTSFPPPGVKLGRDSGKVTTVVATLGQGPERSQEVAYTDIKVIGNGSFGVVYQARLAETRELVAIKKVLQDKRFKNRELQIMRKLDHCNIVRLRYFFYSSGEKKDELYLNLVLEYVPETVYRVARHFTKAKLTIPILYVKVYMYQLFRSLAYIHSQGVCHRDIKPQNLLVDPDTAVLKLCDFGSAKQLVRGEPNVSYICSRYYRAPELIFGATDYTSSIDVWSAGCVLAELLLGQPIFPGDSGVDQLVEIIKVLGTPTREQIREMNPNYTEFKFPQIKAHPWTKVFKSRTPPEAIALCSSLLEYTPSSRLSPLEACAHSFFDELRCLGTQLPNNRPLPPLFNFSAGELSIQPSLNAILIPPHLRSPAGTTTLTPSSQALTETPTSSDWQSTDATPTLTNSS
In short: as §1

[3] = 1 nM GSK3b, 2 μM ATP, 30 minute preincubation, Table 16, read-out: GSK3-B TR-FRET BIOCHEMICAL (TR-FRET), IC50
[4] = 1 nM GSK3α, 4 μM ATP, 30 minute preincubation, Table 16, read-out: GSK3-A TR-FRET BIOCHEMICAL (TR-FRET), IC50
[5] = read-out: GSK3-B (TR-FRET 1 mM ATP), GMean, IC50, 1 mM ATP, geometric mean
[6] = read-out: GSK3-A (TR-FRET 1 mM ATP), GMean, IC50, 1 mM ATP, geometric mean
[7] = 1 nM GSK3b, 2 μM ATP, 30 minute preincubation, read-out: GSK3-B TR-FRET BIOCHEMICAL (TR-FRET), IC50
[8] = 1 nM GSK3α, 4 μM ATP, 30 minute preincubation, read-out: GSK3-A TR-FRET BIOCHEMICAL (TR-FRET), IC50
[9] = 1 nM GSK3b, 2 μM ATP, 30 minute preincubation, Table 16, read-out: GSK3-B TR-FRET BIOCHEMICAL (TR-FRET)
[10] = 1 nM GSK3α, 4 μM ATP, 30 minute preincubation, Table 16, read-out: GSK3-A TR-FRET BIOCHEMICAL (TR-FRET)

Chain of GSK3b (GST-full length GSK3b) (P49841 whole entry, canonical isoform): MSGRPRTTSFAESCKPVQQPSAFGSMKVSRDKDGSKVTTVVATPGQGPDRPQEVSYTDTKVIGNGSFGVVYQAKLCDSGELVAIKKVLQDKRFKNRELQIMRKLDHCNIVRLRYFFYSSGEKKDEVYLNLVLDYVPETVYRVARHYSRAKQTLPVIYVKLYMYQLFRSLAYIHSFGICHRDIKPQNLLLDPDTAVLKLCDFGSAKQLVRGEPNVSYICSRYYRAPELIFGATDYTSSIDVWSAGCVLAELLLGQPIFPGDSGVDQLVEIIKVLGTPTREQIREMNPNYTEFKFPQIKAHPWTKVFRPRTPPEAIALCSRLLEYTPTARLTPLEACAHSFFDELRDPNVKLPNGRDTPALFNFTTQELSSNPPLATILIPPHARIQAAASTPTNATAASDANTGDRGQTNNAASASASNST

SMILES | pIC50 [1, 3] | pIC50 [2, 4] | pIC50 [1, 9] | pIC50 [2, 10] | further results
CC[C@]1(c2cccc(N(c3cccnc3)C(C)C)c2)C2=C(CC(C)(C)CC2=O)Nc2n[nH]cc21 [Compound 917087] | 5.30 to 6.00 | 6.00 to 7.00 |  |  | 
CCN(c1cccnc1)c1cccc(C2(CC)C3=C(CC(C)(C)CC3=O)Nc3n[nH]cc32)c1 (stereo not shown) [Compound 917088] | ≥ 7.00 | ≥ 7.00 |  |  | pIC50 [1, 5]: 5.30 to 6.00; pIC50 [2, 6]: 6.00 to 7.00
CCN(c1cccnc1)c1cccc(C2(CC)C3=C(CC(C)(C)CC3=O)Nc3n[nH]cc32)c1 (stereo not shown) [Compound 917089] | 5.30 to 6.00 | 6.00 to 7.00 |  |  | 
CC1(C)CC(=O)C2=C(C1)Nc1n[nH]cc1[C@]21COC2(CCC2)C1 [Compound 917128] |  |  |  |  | pIC50 [1, 7]: 6.00 to 7.00; pIC50 [2, 8]: 6.00 to 7.00
CC1(C)CC(=O)C2=C(C1)Nc1n[nH]cc1[C@@]21COC2(CCC2)C1 [Compound 917129] |  |  |  |  | pIC50 [1, 7]: 6.00 to 7.00; pIC50 [2, 8]: 6.00 to 7.00
CCCS(=O)(=O)c1cccc(C2(CC)C3=C(CC(C)(C)CC3=O)Nc3n[nH]cc32)c1 (stereo not shown) [Compound 917131] | ≥ 7.00 | ≥ 7.00 |  |  | 
CC1(C)CC2=C(C(=O)C1F)[C@]1(CC[C@H](C(F)(F)F)CC1)c1c[nH]nc1N2 (stereo partly shown) [Compound 917133] |  |  | ≥ 7.00 | ≥ 7.00 | 
CC1(C)CC2=C(C(=O)C1F)[C@]1(CC[C@@H](C(F)(F)F)CC1)c1c[nH]nc1N2 (stereo partly shown) [Compound 917134] |  |  | 6.00 to 7.00 | ≥ 7.00 | 
CC1(C)CC(=O)C2=C(Nc3n[nH]cc3[C@]23CC[C@@H](C(F)(F)F)CC3)C1F (stereo partly shown) [Compound 917135] |  |  | 6.00 to 7.00 | ≥ 7.00 | 
CC1(C)CC(=O)C2=C(Nc3n[nH]cc3[C@]23CC[C@H](C(F)(F)F)CC3)C1F (stereo partly shown) [Compound 917136] |  |  | 6.00 to 7.00 | ≥ 7.00 | 
CC1(C)CC(=O)C2=C(C1)Nc1n[nH]cc1C21CCCN(S(=O)(=O)C2CC2)CC1 (stereo not shown) [Compound 917137] |  |  | ≥ 7.00 | ≥ 7.00 | 
Cn1ccc(S(=O)(=O)N2CCCC3(CC2)C2=C(CC(C)(C)CC2=O)Nc2n[nH]cc23)n1 (stereo not shown) [Compound 917138] |  |  | ≥ 7.00 | ≥ 7.00 | 
CC1(C)CC(=O)C2=C(C1)Nc1n[nH]cc1C21CN(S(=O)(=O)C2CCCC2)C1 [Compound 917139] |  |  | ≥ 7.00 | ≥ 7.00 | pIC50 ([1]; GSK3-B (TR-FRET 1 mM ATP), GMean, IC50, 1 mM ATP, geometric mean): 6.00 to 7.00; pIC50 ([2]; GSK3-A (TR-FRET 1 mM ATP), GMean, IC50, 1 mM ATP, geometric mean): 6.00 to 7.00
COc1cccc(S(=O)(=O)N2CCCC3(CC2)C2=C(CC(C)(C)CC2=O)Nc2n[nH]cc23)c1 (stereo not shown) [Compound 917140] |  |  | 6.00 to 7.00 | ≥ 7.00 | 
COc1ccc(S(=O)(=O)N2CCCC3(CC2)C2=C(CC(C)(C)CC2=O)Nc2n[nH]cc23)cc1 (stereo not shown) [Compound 917141] |  |  | 6.00 to 7.00 | ≥ 7.00 | 
COc1ccccc1S(=O)(=O)N1CCCC2(CC1)C1=C(CC(C)(C)CC1=O)Nc1n[nH]cc12 (stereo not shown) [Compound 917142] |  |  | 6.00 to 7.00 | ≥ 7.00 | 
COc1ccc(S(=O)(=O)N2CCC3(CC2)C2=C(CC(C)(C)CC2=O)Nc2n[nH]cc23)cc1 [Compound 917143] |  |  | ≥ 7.00 | ≥ 7.00 | 
CC1(C)CC(=O)C2=C(C1)Nc1n[nH]cc1C21CN(S(=O)(=O)c2ccc(F)cc2)C1 [Compound 917144] |  |  | ≥ 7.00 | ≥ 7.00 | 
CC1(C)CC(=O)C2=C(C1)Nc1n[nH]cc1C21CCCN(c2ccncn2)CC1 (stereo not shown) [Compound 917145] | 5.30 to 6.00 | 5.30 to 6.00 |  |  | 
CCC1(c2cccc(N(C)c3ccnc(F)c3)c2)C2=C(CC(C)(C)CC2=O)Nc2n[nH]cc21 (stereo not shown) [Compound 917146] | ≥ 7.00 | ≥ 7.00 |  |  | 
CCc1cc(N(C)c2cccc(C3(CC)C4=C(CC(C)(C)CC4=O)Nc4n[nH]cc43)c2)ccn1 (stereo not shown) [Compound 917147] | 6.00 to 7.00 | ≥ 7.00 |  |  | 
CCC1(c2cccc(N(C)c3ccnc(C)c3)c2)C2=C(CC(C)(C)CC2=O)Nc2n[nH]cc21 (stereo not shown) [Compound 917149] | 5.30 to 6.00 | 6.00 to 7.00 |  |  | 
CCC1(c2cccc(S(=O)(=O)CC3CC3)c2)C2=C(CC(C)(C)CC2=O)Nc2n[nH]cc21 (stereo not shown) [Compound 917150] | ≥ 7.00 | ≥ 7.00 |  |  | pIC50 [1, 5]: 6.00 to 7.00; pIC50 [2, 6]: ≥ 7.00
CC[C@@]1(c2cccc(S(=O)(=O)CC3CC3)c2)C2=C(CC(C)(C)CC2=O)Nc2n[nH]cc21 [Compound 917151] | < 5.30 | 5.30 to 6.00 |  |  | 
CCC1(c2cccc(N(C)c3ccc(F)nc3)c2)C2=C(CC(C)(C)CC2=O)Nc2n[nH]cc21 (stereo not shown) [Compound 917152] | 6.00 to 7.00 | ≥ 7.00 |  |  | 
CC[C@@]1(c2cccc(C(F)(F)F)c2)C2=C(CNC2=O)Nc2n[nH]cc21 [Compound 917157] |  |  | < 5.30 | < 5.30 | 
